Assay results from patent US3992371A, “Penicillins substituted with heterocyclic and substituted phenyl groups” (Sumitomo Chemical Company, Limited, priority 1973, dated 1976).
Values after ≈ are worked out from the molar mass of the structure shown. Structures can show the parent of a compound that is named as a salt.

Tests used:
Assay in all cases: Minimal inhibitory concentration, agar dilution method
Assay type in all cases: cell-based
[1] = tested on: Klebsiella pneumoniae PCI602
From the text: (§1) When determined according to the agar dilution method, the penicillins (I) afford the minimal inhibitory concentrations against test microorganisms as shown in Table 2.

[2] = tested on: Proteus vulgaris HV19
[3] = tested on: Staphylococcus aureus 209P
From the text: as §1

[4] = tested on: Pseudomonas aeruginosa 104
From the text: as §1

[5] = tested on: Escherichia coli NIHJ
From the text: as §1

[6] = tested on: Proteus miravilis GN2425

Row | MIC [1] [µg/mL] | MIC [2] [µg/mL] | MIC [3] [µg/mL] | MIC [4] [µg/mL] | MIC [5] [µg/mL] | MIC [6] [µg/mL] | Compound
1 | 200 (≈ 529 µM) | – | – | – | – | – | CC1(C)S[C@@H]2[C@H](NC(=O)C(C(=O)O)c3ccccc3)C(=O)N2[C@H]1C(=O)O (stereo partly drawn) [Carbenicillin, reference compound]
2 | 6.25 | 0.025 | 1.56 | 1.56 | 0.78 | 0.78 | CC1(C)S[C@@H]2[C@H](NC(=O)[C@H](NC(=O)c3cnc4cccnc4c3O)c3cccc(N)c3)C(=O)N2[C@H]1C(=O)O [Example 1, D-α-(4-hydroxy-1,5-naphthyridine-3-carboxamido)-m-aminobenzylpenicillin sodium salt]
3 | 12.5 | 0.025 | 1.56 | 1.56 | 0.78 | 1.56 | CC1(C)S[C@@H]2[C@H](NC(=O)[C@H](NC(=O)c3cnc4cccnc4c3O)c3ccc(N)cc3)C(=O)N2[C@H]1C(=O)O [Example 2, D-α-(4-hydroxy-1,5-naphthyridine-3-carboxamido)-p-aminobenzylpenicillin sodium salt]
4 | 12.5 (≈ 20 µM) | 0.1 (≈ 0.16 µM) | 1.56 (≈ 2.5 µM) | 3.13 (≈ 5.02 µM) | 3.13 (≈ 5.02 µM) | 6.25 (≈ 10 µM) | CCOC(=O)Oc1c(C(=O)N[C@@H](C(=O)N[C@@H]2C(=O)N3[C@@H]2SC(C)(C)[C@@H]3C(=O)O)c2ccc(OC)cc2)cnc2cccnc12 [Example 3, D-α-(4-ethoxycarbonyloxy-1,5-naphthyridine-3-carboxamido)-p-methoxybenzylpenicillin]
5 | 12.5 | 0.1 | 1.56 | 3.13 | 3.13 | 12.5 | COc1ccc([C@@H](NC(=O)c2cnc3cccnc3c2O)C(=O)N[C@@H]2C(=O)N3[C@@H]2SC(C)(C)[C@@H]3C(=O)O)cc1 [Example 4, D-α-(4-hydroxy-1,5-naphthyridine-3-carboxamido)-p-methoxybenzylpenicillin sodium salt]
6 | 6.25 | 0.1 | 1.56 | 1.56 | 3.13 | 6.25 | CN(C)c1ccc([C@@H](NC(=O)c2cnc3cccnc3c2O)C(=O)N[C@@H]2C(=O)N3[C@@H]2SC(C)(C)[C@@H]3C(=O)O)cc1 [Example 5, D-α-(4-hydroxy-1,5-naphthyridine-3-carboxamido)-p-dimethylaminobenzylpenicillin sodium salt]
7 | 12.5 (≈ 23.3 µM) | 0.78 (≈ 1.45 µM) | 1.56 (≈ 2.91 µM) | 6.25 (≈ 11.6 µM) | 6.25 (≈ 11.6 µM) | 12.5 (≈ 23.3 µM) | CC1(C)S[C@@H]2[C@H](NC(=O)[C@H](NC(=O)c3nnc4ccccc4c3O)c3cccc(N)c3)C(=O)N2[C@H]1C(=O)O [Example 6, D-α-(4-hydroxycinnoline-3-carboxamido)-m-aminobenzylpenicillin]
8 | 6.25 (≈ 9.44 µM) | 0.2 (≈ 0.302 µM) | 0.78 (≈ 1.18 µM) | 6.25 (≈ 9.44 µM) | 3.13 (≈ 4.73 µM) | 6.25 (≈ 9.44 µM) | CC(=O)Nc1cccc([C@@H](NC(=O)c2cnc3ccccc3c2OC(=O)C(C)(C)C)C(=O)N[C@@H]2C(=O)N3[C@@H]2SC(C)(C)[C@@H]3C(=O)O)c1 [Example 7, D-α-(4-pivaloyloxyquinoline-3-carboxamido)-m-acetylaminobenzylpenicillin]
9 | 12.5 (≈ 22.1 µM) | 0.05 (≈ 0.0886 µM) | 1.56 (≈ 2.76 µM) | 1.56 (≈ 2.76 µM) | 0.78 (≈ 1.38 µM) | 0.78 (≈ 1.38 µM) | CCNc1ccc(C(NC(=O)c2cnc3cccnc3c2O)C(=O)N[C@@H]2C(=O)N3[C@@H]2SC(C)(C)[C@@H]3C(=O)O)cc1 (stereo partly drawn) [Example 10]
10 | 12.5 (≈ 19.3 µM) | 0.05 (≈ 0.0772 µM) | 1.56 (≈ 2.41 µM) | 3.13 (≈ 4.83 µM) | 1.56 (≈ 2.41 µM) | 1.56 (≈ 2.41 µM) | CC1(C)S[C@@H]2[C@H](NC(=O)C(NC(=O)c3cnc4cccnc4c3O)c3cccc(I)c3)C(=O)N2[C@H]1C(=O)O (stereo partly drawn) [Example 11]
11 | 12.5 (≈ 19.9 µM) | 0.05 (≈ 0.0796 µM) | 1.56 (≈ 2.48 µM) | 3.13 (≈ 4.98 µM) | 1.56 (≈ 2.48 µM) | 1.56 (≈ 2.48 µM) | CCOC(=O)Oc1c(C(=O)NC(C(=O)N[C@@H]2C(=O)N3[C@@H]2SC(C)(C)[C@@H]3C(=O)O)c2cccc(Cl)c2)cnc2cccnc12 (stereo partly drawn) [Example 12]
12 | 6.25 (≈ 11.7 µM) | 0.05 (≈ 0.0934 µM) | 1.56 (≈ 2.91 µM) | 1.56 (≈ 2.91 µM) | 0.78 (≈ 1.46 µM) | 1.56 (≈ 2.91 µM) | Cc1ccc(C(NC(=O)c2cnc3cccnc3c2O)C(=O)N[C@@H]2C(=O)N3[C@@H]2SC(C)(C)[C@@H]3C(=O)O)cc1 (stereo partly drawn) [Example 13]
13 | 12.5 (≈ 23.3 µM) | 0.78 (≈ 1.45 µM) | 0.78 (≈ 1.45 µM) | 0.78 (≈ 1.45 µM) | 3.13 (≈ 5.83 µM) | 12.5 (≈ 23.3 µM) | CC1(C)S[C@@H]2[C@H](NC(=O)C(NC(=O)c3nc4ccccc4nc3O)c3cccc(N)c3)C(=O)N2[C@H]1C(=O)O (stereo partly drawn) [Example 14]
14 | 6.25 (≈ 11.7 µM) | 0.2 (≈ 0.373 µM) | 0.78 (≈ 1.46 µM) | 3.13 (≈ 5.84 µM) | 3.13 (≈ 5.84 µM) | 3.13 (≈ 5.84 µM) | CC1(C)S[C@@H]2[C@H](NC(=O)C(NC(=O)c3cnc4ccccc4c3O)c3cccc(N)c3)C(=O)N2[C@H]1C(=O)O (stereo partly drawn) [Example 15]
15 | – | 0.39 (≈ 0.71 µM) | 0.78 (≈ 1.42 µM) | 3.13 (≈ 5.69 µM) | 6.25 (≈ 11.4 µM) | 3.13 (≈ 5.69 µM) | Cc1ccc2c(O)c(C(=O)NC(C(=O)N[C@@H]3C(=O)N4[C@@H]3SC(C)(C)[C@@H]4C(=O)O)c3cccc(N)c3)cnc2c1 (stereo partly drawn) [Example 16]
16 | 6.25 (≈ 11 µM) | 0.2 (≈ 0.351 µM) | 0.78 (≈ 1.37 µM) | 3.13 (≈ 5.49 µM) | 3.13 (≈ 5.49 µM) | 3.13 (≈ 5.49 µM) | CC1(C)S[C@@H]2[C@H](NC(=O)C(NC(=O)c3cnc4cc(Cl)ccc4c3O)c3ccc(N)cc3)C(=O)N2[C@H]1C(=O)O (stereo partly drawn) [Example 17]

Row | MIC [1] [µg/mL] | MIC [2] [µg/mL] | MIC [3] [µg/mL] | MIC [4] [µg/mL] | MIC [5] [µg/mL] | MIC [6] [µg/mL] | Compound
17 | 6.25 (≈ 11.4 µM) | 0.025 (≈ 0.0454 µM) | 1.56 (≈ 2.83 µM) | 1.56 (≈ 2.83 µM) | 1.56 (≈ 2.83 µM) | 1.56 (≈ 2.83 µM) | Cc1ccc2c(O)c(C(=O)NC(C(=O)N[C@@H]3C(=O)N4[C@@H]3SC(C)(C)[C@@H]4C(=O)O)c3cccc(N)c3)cnc2n1 (stereo partly drawn) [Example 18]
18 | 6.25 (≈ 11.4 µM) | 0.025 (≈ 0.0454 µM) | 1.56 (≈ 2.83 µM) | 0.78 (≈ 1.42 µM) | 0.78 (≈ 1.42 µM) | 0.78 (≈ 1.42 µM) | Cc1ccc2ncc(C(=O)NC(C(=O)N[C@@H]3C(=O)N4[C@@H]3SC(C)(C)[C@@H]4C(=O)O)c3cccc(N)c3)c(O)c2n1 (stereo partly drawn) [Example 19]
19 | 6.25 (≈ 11.1 µM) | 0.1 (≈ 0.177 µM) | 0.78 (≈ 1.38 µM) | 3.13 (≈ 5.53 µM) | 3.13 (≈ 5.53 µM) | 3.13 (≈ 5.53 µM) | COc1ccc2c(O)c(C(=O)NC(C(=O)N[C@@H]3C(=O)N4[C@@H]3SC(C)(C)[C@@H]4C(=O)O)c3cccc(N)c3)cnc2c1 (stereo partly drawn) [Example 20]
20 | 3.13 (≈ 5.68 µM) | 0.025 (≈ 0.0454 µM) | 1.56 (≈ 2.83 µM) | 0.78 (≈ 1.42 µM) | 0.78 (≈ 1.42 µM) | 1.56 (≈ 2.83 µM) | Cc1ccc2ncc(C(=O)NC(C(=O)N[C@@H]3C(=O)N4[C@@H]3SC(C)(C)[C@@H]4C(=O)O)c3ccc(N)cc3)c(O)c2n1 (stereo partly drawn) [Example 21]
21 | 3.13 (≈ 5.4 µM) | 0.025 (≈ 0.0431 µM) | 1.56 (≈ 2.69 µM) | 0.78 (≈ 1.35 µM) | 0.78 (≈ 1.35 µM) | 0.78 (≈ 1.35 µM) | CN(C)c1ccc2ncc(C(=O)NC(C(=O)N[C@@H]3C(=O)N4[C@@H]3SC(C)(C)[C@@H]4C(=O)O)c3cccc(N)c3)c(O)c2n1 (stereo partly drawn) [Example 22]
22 | 6.25 (≈ 11 µM) | 0.05 (≈ 0.0882 µM) | 1.56 (≈ 2.75 µM) | 1.56 (≈ 2.75 µM) | 0.78 (≈ 1.38 µM) | 1.56 (≈ 2.75 µM) | COc1ccc2ncc(C(=O)NC(C(=O)N[C@@H]3C(=O)N4[C@@H]3SC(C)(C)[C@@H]4C(=O)O)c3cccc(N)c3)c(O)c2n1 (stereo partly drawn) [Example 23]
23 | 6.25 (≈ 10.7 µM) | 0.025 (≈ 0.0429 µM) | 1.56 (≈ 2.68 µM) | 1.56 (≈ 2.68 µM) | 0.78 (≈ 1.34 µM) | 0.78 (≈ 1.34 µM) | CSc1ccc2ncc(C(=O)NC(C(=O)N[C@@H]3C(=O)N4[C@@H]3SC(C)(C)[C@@H]4C(=O)O)c3ccc(N)cc3)c(O)c2n1 (stereo partly drawn) [Example 24]
24 | 12.5 (≈ 21.5 µM) | 0.2 (≈ 0.344 µM) | 0.78 (≈ 1.34 µM) | 3.13 (≈ 5.39 µM) | 3.13 (≈ 5.39 µM) | 3.13 (≈ 5.39 µM) | CC1(C)S[C@@H]2[C@H](NC(=O)C(NC(=O)c3cnc4cc([N+](=O)[O-])ccc4c3O)c3cccc(N)c3)C(=O)N2[C@H]1C(=O)O (stereo partly drawn) [Example 25]
25 | 6.25 (≈ 10.5 µM) | 0.025 (≈ 0.0421 µM) | 1.56 (≈ 2.63 µM) | 0.78 (≈ 1.31 µM) | 0.78 (≈ 1.31 µM) | 0.78 (≈ 1.31 µM) | CC(=O)Nc1ccc2ncc(C(=O)NC(C(=O)N[C@@H]3C(=O)N4[C@@H]3SC(C)(C)[C@@H]4C(=O)O)c3cccc(N)c3)c(O)c2n1 (stereo partly drawn) [Example 26]
26 | 12.5 (≈ 22.7 µM) | 0.39 (≈ 0.708 µM) | 0.78 (≈ 1.42 µM) | 3.13 (≈ 5.68 µM) | 3.13 (≈ 5.68 µM) | 3.13 (≈ 5.68 µM) | CC1(C)S[C@@H]2[C@H](NC(=O)C(NC(=O)c3cnc4cc(N)ccc4c3O)c3cccc(N)c3)C(=O)N2[C@H]1C(=O)O (stereo partly drawn) [Example 27]
27 | 6.25 (≈ 11.3 µM) | 0.025 (≈ 0.0453 µM) | 1.56 (≈ 2.83 µM) | 0.78 (≈ 1.41 µM) | 0.78 (≈ 1.41 µM) | 0.78 (≈ 1.41 µM) | CC1(C)SC2C(NC(=O)C(NC(=O)c3cnc4ccc(N)nc4c3O)c3cccc(N)c3)C(=O)N2C1C(=O)O (stereo not drawn) [Example 29]
28 | 6.25 (≈ 11.3 µM) | 0.05 (≈ 0.0905 µM) | 1.56 (≈ 2.82 µM) | 1.56 (≈ 2.82 µM) | 0.78 (≈ 1.41 µM) | 1.56 (≈ 2.82 µM) | CC1(C)S[C@@H]2[C@H](NC(=O)C(NC(=O)c3cnc4ccc(O)nc4c3O)c3cccc(N)c3)C(=O)N2[C@H]1C(=O)O (stereo partly drawn) [Example 30]
29 | 12.5 (≈ 23.3 µM) | 0.39 (≈ 0.728 µM) | 0.78 (≈ 1.46 µM) | 3.13 (≈ 5.84 µM) | 3.13 (≈ 5.84 µM) | 3.13 (≈ 5.84 µM) | CC1(C)S[C@@H]2[C@H](NC(=O)C(NC(=O)c3cc4ccccc4nc3O)c3cccc(N)c3)C(=O)N2[C@H]1C(=O)O (stereo partly drawn) [Example 31]
30 | 12.5 (≈ 20.9 µM) | 0.05 (≈ 0.0837 µM) | 1.56 (≈ 2.61 µM) | 3.13 (≈ 5.24 µM) | 3.13 (≈ 5.24 µM) | 3.13 (≈ 5.24 µM) | COc1nc(OC)c2c(O)c(C(=O)NC(C(=O)NC3C(=O)N4C3SC(C)(C)C4C(=O)O)c3ccc(N)cc3)cnc2n1 (stereo not drawn) [Example 32]
31 | 6.25 (≈ 11.6 µM) | 0.025 (≈ 0.0465 µM) | 1.56 (≈ 2.9 µM) | 0.78 (≈ 1.45 µM) | 0.78 (≈ 1.45 µM) | 0.78 (≈ 1.45 µM) | CC1(C)SC2C(NC(=O)C(NC(=O)c3cnc4cncnc4c3O)c3cccc(N)c3)C(=O)N2C1C(=O)O (stereo not drawn) [Example 33]
